According to paper doi:10.1101/2025.07.18.665579v1 (biorxiv, 2025):
Changes are numbered by the printed parent chain.

Key:
Test in all cases: microscale thermophoresis
Assay type in all cases: binding
[1] = biological target: SbXAT (Sb3G094600) (Sorghum bicolor, UniProt A0A1B6Q2C2)
[2] = biological target: T1, SbXXT (Sb2G401600) (Sorghum bicolor, UniProt C5X460, Y462F)
T1 sequence (C5X460 93-554 Y462F): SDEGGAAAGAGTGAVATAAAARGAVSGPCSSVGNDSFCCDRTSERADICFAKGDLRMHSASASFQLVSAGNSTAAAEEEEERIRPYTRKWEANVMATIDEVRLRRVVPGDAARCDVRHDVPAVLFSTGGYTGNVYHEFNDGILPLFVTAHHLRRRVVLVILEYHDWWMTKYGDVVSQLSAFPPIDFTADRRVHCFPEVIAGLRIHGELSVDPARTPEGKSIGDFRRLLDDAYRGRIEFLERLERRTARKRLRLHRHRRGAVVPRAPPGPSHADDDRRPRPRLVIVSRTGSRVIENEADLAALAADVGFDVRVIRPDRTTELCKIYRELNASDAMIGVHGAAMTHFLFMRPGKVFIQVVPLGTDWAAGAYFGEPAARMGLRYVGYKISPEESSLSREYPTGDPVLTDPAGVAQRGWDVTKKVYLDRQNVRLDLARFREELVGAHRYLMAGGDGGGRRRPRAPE

[3] = biological target: T2, SbXXT (Sb2G401600) (Sorghum bicolor, UniProt C5X460)
T2 sequence (C5X460 93-554): T1 sequence (C5X460 93-554 Y462F) with F370Y

[4] = biological target: SbXAT (Sb3G094600) (Sorghum bicolor, UniProt A0A1B6Q2C2, F596Y)
Sequence of SbXAT (Sb3G094600) (Sorghum bicolor, UniProt A0A1B6Q2C2, F596Y) (A0A1B6Q2C2 198-685 F596Y): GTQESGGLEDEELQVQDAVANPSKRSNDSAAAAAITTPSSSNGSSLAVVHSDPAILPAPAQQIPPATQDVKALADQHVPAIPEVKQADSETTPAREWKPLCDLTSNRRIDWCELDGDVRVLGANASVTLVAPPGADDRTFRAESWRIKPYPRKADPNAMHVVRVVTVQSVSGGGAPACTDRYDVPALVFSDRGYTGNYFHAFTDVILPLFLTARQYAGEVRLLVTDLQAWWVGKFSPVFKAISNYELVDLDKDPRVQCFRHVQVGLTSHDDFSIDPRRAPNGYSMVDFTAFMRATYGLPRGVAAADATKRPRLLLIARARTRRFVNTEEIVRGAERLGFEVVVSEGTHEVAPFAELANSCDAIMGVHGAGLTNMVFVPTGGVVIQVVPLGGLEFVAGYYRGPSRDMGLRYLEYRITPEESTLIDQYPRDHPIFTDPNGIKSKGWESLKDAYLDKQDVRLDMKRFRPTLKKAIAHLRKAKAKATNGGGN

Sequence of SbXAT (Sb3G094600) (Sorghum bicolor, UniProt A0A1B6Q2C2) (A0A1B6Q2C2 198-685): as the sequence (A0A1B6Q2C2 198-685 F596Y) above, with Y399F counted along it

O=c1ccn([C@@H]2O[C@H](COP(=O)(O)OP(=O)(O)O[C@H]3OC[C@@H](O)[C@H](O)[C@H]3O)[C@@H](O)[C@H]2O)c(=O)[nH]1 [UDP-Xyl]
Kd [1]: 373 µM
Kd [2]: 15 µM
Kd [3]: 13 µM
Kd [4]: 221 µM

O=c1ccn([C@@H]2O[C@H](COP(=O)(O)OP(=O)(O)O[C@H]3O[C@@H](CO)[C@H](O)[C@H]3O)[C@@H](O)[C@H]2O)c(=O)[nH]1 [UDP-Araf]
Kd [1]: 244 µM
Kd [2]: 19 µM
Kd [3]: 26 µM
Kd [4]: 531 µM
